Test results as given in PubChem BioAssay (NCI).
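Grown in 96-well plates, cells were treated for 48 hours with each compound at five concentrations. Insufficient inhibition: endpoint recorded as highest concentration tested. TGI is the concentration that stops growth completely.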

Columns and labels:
Assay in all cases: NCI tumour cell line growth inhibition, 48 h
[1] = tested on: SNB-19 CNS
[2] = tested on: LOX IMVI melanoma
[3] = tested on: NCI-H23 lung
[4] = tested on: COLO 205 colon
[5] = tested on: MOLT-4 leukemia
[6] = tested on: TK-10 renal
[7] = tested on: SF-268 CNS
[8] = tested on: HOP-18 NSCLC
[9] = tested on: SR leukemia
[10] = tested on: A498 renal
[11] = tested on: OVCAR-5 ovarian
[12] = tested on: RXF 393 renal
[13] = tested on: SK-MEL-28 melanoma
[14] = tested on: UO-31 renal
[15] = tested on: OVCAR-8 ovarian
[16] = tested on: HT29 colon
[17] = tested on: XF 498 CNS
[18] = tested on: M14 melanoma
[19] = tested on: SNB-75 CNS
[20] = tested on: SW-620 colon
[21] = tested on: DMS 273 small cell lung
[22] = tested on: NCI-H460 lung
[23] = tested on: NCI-H226 lung
[24] = tested on: RPMI-8226 leukemia
[25] = tested on: HL-60(TB) leukemia
[26] = tested on: SF-539 CNS
[27] = tested on: A549 NSCLC
[28] = tested on: SNB-78 CNS
[29] = tested on: IGROV1 ovarian
[30] = tested on: CAKI-1 renal
[31] = tested on: ACHN renal
[32] = tested on: DLD-1 colon
[33] = tested on: EKVX NSCLC
[34] = tested on: CCRF-CEM leukemia
[35] = tested on: K-562 leukemia
[36] = tested on: UACC-257 melanoma
[37] = tested on: SN12C renal
[38] = tested on: SF-295 CNS
[39] = tested on: U251 CNS
[40] = tested on: KM12 colon
[41] = tested on: HOP-92 NSCLC
[42] = tested on: SK-MEL-5 melanoma
[43] = tested on: OVCAR-4 ovarian
[44] = tested on: HCT-116 colon
[45] = tested on: DMS 114 small cell lung
[46] = tested on: HCT-15 colon
[47] = tested on: HCC-2998 colon
[48] = tested on: MALME-3M melanoma
[49] = tested on: SK-MEL-2 melanoma
[50] = tested on: UACC-62 melanoma
[51] = tested on: RXF-631 renal
[52] = tested on: SK-OV-3 ovarian
[53] = tested on: 786-0 renal
[54] = tested on: LXFL 529 NSCLC
[55] = tested on: HOP-62 NSCLC
[56] = tested on: M19-MEL melanoma
[57] = tested on: KM20L2 colon
[58] = tested on: NCI-H522 lung

## CCCn1cc2c(SC)nc(SC)nc2n1
[1]
  TGI: > 100 µM
[2]
  TGI: > 100 µM
[3]
  TGI: > 100 µM
[4]
  TGI: > 100 µM
[5]
  TGI: > 100 µM
[6]
  TGI: > 100 µM
[7]
  TGI: > 100 µM
[8]
  TGI: > 100 µM
[9]
  TGI: > 100 µM
[10]
  TGI: > 100 µM
[11]
  TGI: > 100 µM
[12]
  TGI: > 100 µM
[13]
  TGI: > 100 µM
[14]
  TGI: > 100 µM
[15]
  TGI: > 100 µM
[16]
  TGI: > 100 µM
[17]
  TGI: > 100 µM
[18]
  TGI: > 100 µM
[19]
  TGI: > 100 µM
[20]
  TGI: > 100 µM
[21]
  TGI: > 100 µM
[22]
  TGI: > 100 µM
[23]
  TGI: > 100 µM
[24]
  TGI: > 100 µM
[25]
  TGI: > 100 µM
[26]
  TGI: > 100 µM
[27]
  TGI: > 100 µM
[28]
  TGI: > 100 µM
[29]
  TGI: > 100 µM
[30]
  TGI: > 100 µM
[31]
  TGI: > 100 µM
[32]
  TGI: > 100 µM
[33]
  TGI: > 100 µM
[34]
  TGI: > 100 µM
[35]
  TGI: > 100 µM
[36]
  TGI: > 100 µM
[37]
  TGI: > 100 µM
[38]
  TGI: > 100 µM
[39]
  TGI: > 100 µM
[40]
  TGI: > 100 µM
[41]
  TGI: > 100 µM
[42]
  TGI: > 100 µM
[43]
  TGI: > 100 µM
[44]
  TGI: > 100 µM
[45]
  TGI: > 100 µM
[46]
  TGI: > 100 µM
[47]
  TGI: > 100 µM
[48]
  TGI: > 100 µM
[49]
  TGI: > 100 µM

## O=C(c1ccccc1)C(c1ccccc1)C1(O)C(=O)Nc2ccc([N+](=O)[O-])cc21 (stereo not given)
[1]
  TGI: > 100 µM
[2]
  TGI: > 100 µM
[3]
  TGI: > 100 µM
[4]
  TGI: > 100 µM
[5]
  TGI: > 100 µM
[6]
  TGI: > 100 µM
[50]
  TGI: > 100 µM
[7]
  TGI: > 100 µM
[10]
  TGI: > 100 µM
[11]
  TGI: > 100 µM
[12]
  TGI: > 100 µM
[51]
  TGI: > 100 µM
[13]
  TGI: > 100 µM
[14]
  TGI: > 100 µM
[52]
  TGI: 79.7 µM
[15]
  TGI: > 100 µM
[17]
  TGI: > 100 µM
[18]
  TGI: > 100 µM
[19]
  TGI: > 100 µM
[20]
  TGI: > 100 µM
[22]
  TGI: > 100 µM
[53]
  TGI: > 100 µM
[54]
  TGI: > 100 µM
[23]
  TGI: > 100 µM
[24]
  TGI: > 100 µM
[25]
  TGI: > 100 µM
[26]
  TGI: > 100 µM
[55]
  TGI: > 100 µM
[27]
  TGI: > 100 µM
[28]
  TGI: > 100 µM
[29]
  TGI: > 100 µM
[30]
  TGI: > 100 µM
[31]
  TGI: > 100 µM
[32]
  TGI: > 100 µM
[33]
  TGI: > 100 µM
[34]
  TGI: > 100 µM
[35]
  TGI: > 100 µM
[37]
  TGI: > 100 µM
[56]
  TGI: 72.2 µM
[39]
  TGI: > 100 µM
[41]
  TGI: > 100 µM
[42]
  TGI: 57.7 µM
[57]
  TGI: > 100 µM
[43]
  TGI: > 100 µM
[44]
  TGI: > 100 µM
[45]
  TGI: 79.3 µM
[46]
  TGI: > 100 µM
[58]
  TGI: > 100 µM
[47]
  TGI: > 100 µM
[48]
  TGI: > 100 µM
[49]
  TGI: > 100 µM
